Test results reported in patent US4327097A, “Novel penicillins” (Toyama Chemical Co., Ltd., priority 1974, dated 1982).
In brackets after ≈: the same amount, converted by molar mass.

Key:
[1] = tested on: Proteus vulgaris; assay: MIC against clinical isolates; assay type: cell-based; details: Table 5-6, clinical isolate; unit assumed
[2] = tested on: Proteus morganii; assay: MIC against clinical isolates; assay type: cell-based; details: Table 5-6, clinical isolate; unit assumed
[3] = tested on: Pseudomonas aeruginosa; assay: MIC against clinical isolates; assay type: cell-based; details: unit assumed
[4] = tested on: Proteus vulgaris 3027; assay: MIC, plate method, standard strains; assay type: cell-based; details: Table 3, standard strain; unit assumed
Outline: (§1)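 Plates of Heart infusion agar (pH 7.4) containing compound dilutions; 10^4-cell inoculum, from 10^6 cells/ml; lowest concentration preventing growth reported.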

[5] = tested on: Klebsiella pneumoniae; assay: MIC, plate method, standard strains; assay type: cell-based; details: Table 3, standard strain; unit assumed
Outline: as §1

[6] = tested on: Escherichia coli NIHJ; assay: MIC, plate method, standard strains; assay type: cell-based; details: Table 3, standard strain; unit assumed
Outline: as §1

[7] = tested on: Staphylococcus aureus 209p; assay: MIC, plate method, standard strains; assay type: cell-based; details: Table 3, standard strain, Heart infusion agar pH 7.4; unit assumed
Outline: as §1

[8] = tested on: Escherichia coli; assay: MIC against clinical isolates; assay type: cell-based; details: Table 5-2, clinical isolate; unit assumed
[9] = tested on: Salmonella typhi-murium; assay: MIC against clinical isolates; assay type: cell-based; details: Table 5-5, clinical isolate; unit assumed
[10] = tested on: Klebsiella pneumoniae; assay: MIC against clinical isolates; assay type: cell-based; details: Table 5-4, clinical isolate; unit assumed
[11] = tested on: β-lactamase, Pseudomonas aeruginosa GN 238; assay: Resistant activity against β-lactamase, iodometric assay; assay type: biochemical; details: β-lactamase from Pseudomonas aeruginosa GN 238; Potassium Penicillin G = 100
Description: (3) Resistant activity against β-lactamase, Pseudomonas aerugionsa GN 238:
The resistant activity of each compound against β-lactamase was measured in the manner described below.
β-Lactamase was prepared from Pseudomonas aeruginosa GN 238. This microorganism was cultured in 100 ml of a medium containing 2 g of yeast extract, 10 g of polypeptone, 2 g of glucose, 7 g of disodium hydrogen phosphate, 2 g of potassium dihydrogen phosphate, 1.2 g of ammonium sulfate and 0.4 g of magnesium sulfate, per liter, in a 500-ml Erlenmeyer flask for 6 hrs. at 37° C. with shaking. The resulting cells were collected by centrifugation (5,000 r.p.m.×10 min.), washed three times with 0.1 M phosphate buffer (pH 7.0). Subsequently, the cells were subjected to sonication (20 KHz, 20 min.) and then centrifuged at 15,000 r.p.m. for 60 min. By using the supernatant of enzyme fluid, the resistance of each compound against β-lactamase was determined by the iodometric assay method. Each numeral shown in Table 7 is a relative activity value calculated by assuming as 100 the activity of the control Potassium Penicillin G.

[12] = tested on: Shigella sonnei; assay: MIC against clinical isolates; assay type: cell-based; details: Table 5-5, clinical isolate; unit assumed
Description: (§2) The minimum inhibitory concentration (MIC) was determined by the plate method disclosed in "Chemotherapy" (Japan), Vol. 16, (1968), pages 98-99. The culture medium used was a Heart infusion agar (pH 7.4). The number of the cells per plate used in the inoculum was 10^4 (10^6 cells/ml).
(§3) MIC was determined in the same manner as in the preceding paragraph (1).

[13] = tested on: Shigella flexneri; assay: MIC against clinical isolates; assay type: cell-based; details: Table 5-5, clinical isolate; unit assumed
Description: as §2, §3

[14] = tested on: Proteus mirabilis; assay: MIC against clinical isolates; assay type: cell-based; details: Table 5-6, clinical isolate; unit assumed
[15] = tested on: Staphylococcus aureus; assay: MIC against clinical isolates; assay type: cell-based; details: Table 5-1, clinical isolate; unit assumed

For `CCCN1CCN(C(=O)NC(C(=O)NC2C(=O)N3C2SC(C)(C)C3C(=O)O)c2ccccc2)C(=O)C1=O` (single isomer, unassigned) [Compound 38], the MIC Proteus vulgaris [1] was < 0.4 µg/mL, the MIC Proteus morganii [2] was < 0.4 µg/mL and the MIC Pseudomonas aeruginosa GN 82 ([3]; Table 5-3, clinical isolate) was 3.13 µg/mL (≈ 5.89 µM). For the same compound, the MIC Pseudomonas aeruginosa GN 163 ([3]; Table 5-3, clinical isolate) was 3.13 µg/mL (≈ 5.89 µM), the MIC Pseudomonas aeruginosa GN 376 ([3]; Table 5-3, clinical isolate) was 3.13 µg/mL (≈ 5.89 µM) and the MIC Pseudomonas aeruginosa GN 1091 ([3]; Table 5-3, clinical isolate) was 3.13 µg/mL (≈ 5.89 µM). The MIC Proteus vulgaris 3027 [4] was 0.4 µg/mL (≈ 0.752 µM), the MIC Klebsiella pneumoniae [5] was 3.13 µg/mL (≈ 5.89 µM) and the MIC Esche--richin coil NIHJ [6] was < 0.1 µg/mL. It also gave an MIC Staphylococcus aureus 209p [7] of 0.4 µg/mL (≈ 0.752 µM), an MIC Escherichia coli GN 3452 [8] of 3.13 µg/mL (≈ 5.89 µM) and an MIC Escherichia coli GN 3465 [8] of 50 µg/mL (≈ 94.1 µM). For the same compound, the MIC Escherichia coli GN 3481 [8] was 3.13 µg/mL (≈ 5.89 µM), the MIC Escherichia coli GN 3611 [8] was > 200 µg/mL and the MIC Escherichia coli K-1 [8] was 3.13 µg/mL (≈ 5.89 µM). For the same compound, the MIC Escherichia coli K-2 [8] was 3.13 µg/mL (≈ 5.89 µM), the MIC Escherichia coli K-3 [8] was > 200 µg/mL and the MIC Salmonella typhi-murium SL 2136 [9] was 200 µg/mL (≈ 376 µM). The MIC Klebsiella pneumoniae GN 917 [10] was 3.13 µg/mL (≈ 5.89 µM), the MIC Klebsiella pneumoniae GN 4081 [10] was 50 µg/mL (≈ 94.1 µM) and the MIC Klebsiella pneumoniae GN 4117 [10] was 50 µg/mL (≈ 94.1 µM). The “Relative activity (%), resistant activity against β-lactamase” value (from here on “Relative activity (%)”) [11] was 15%, the MIC Shigella sonnei JS 11232 [12] was 50 µg/mL (≈ 94.1 µM) and the MIC Shigella sonnei JS 11755 [12] was 3.13 µg/mL (≈ 5.89 µM). The MIC Shigella flexneri JS 11215 [13] was 25 µg/mL (≈ 47 µM), the MIC Shigella flexneri JS 11839 [13] was 1.57 µg/mL (≈ 2.95 µM) and the MIC Proteus mirabilis [14] was < 0.4 µg/mL. The MIC Staphylococcus aureus F-2 [15] was 1.57 µg/mL (≈ 2.95 µM), the MIC Staphylococcus aureus F-5 [15] was > 200 µg/mL and the MIC Staphylococcus aureus MS 8588 [15] was 3.13 µg/mL (≈ 5.89 µM). For the same compound, the MIC Staphylococcus aureus MS 8596 [15] was 3.13 µg/mL (≈ 5.89 µM) and the MIC Staphylococcus aureus MS 8684 [15] was 3.13 µg/mL (≈ 5.89 µM).

For `CCCCN1CCN(C(=O)NC(C(=O)NC2C(=O)N3C2SC(C)(C)C3C(=O)O)c2ccccc2)C(=O)C1=O` (single isomer, unassigned) [Compound 39], the MIC Proteus vulgaris [1] was < 0.4 µg/mL, the MIC Proteus morganii [2] was < 0.4 µg/mL and the MIC Proteus vulgaris 3027 [4] was 0.4 µg/mL (≈ 0.733 µM). The MIC Klebsiella pneumoniae [5] was 1.57 µg/mL (≈ 2.88 µM), the MIC Esche--richin coil NIHJ [6] was < 0.1 µg/mL and the MIC Staphylococcus aureus 209p [7] was 0.4 µg/mL (≈ 0.733 µM). The MIC Escherichia coli GN 3481 [8] was 1.57 µg/mL (≈ 2.88 µM), the MIC Escherichia coli GN 3611 [8] was > 200 µg/mL and the MIC Escherichia coli K-1 [8] was 1.57 µg/mL (≈ 2.88 µM). The MIC Escherichia coli K-2 [8] was 1.57 µg/mL (≈ 2.88 µM), the MIC Escherichia coli K-3 [8] was > 200 µg/mL and the MIC Salmonella typhi-murium SL 2136 [9] was 100 µg/mL (≈ 183 µM). For the same compound, the MIC Klebsiella pneumoniae GN 917 [10] was 1.57 µg/mL (≈ 2.88 µM), the “Relative activity (%)” value [11] was 15% and the MIC Shigella sonnei JS 11232 [12] was 25 µg/mL (≈ 45.8 µM). It also gave an MIC Shigella sonnei JS 11755 [12] of 1.57 µg/mL (≈ 2.88 µM), an MIC Shigella flexneri JS 11215 [13] of 25 µg/mL (≈ 45.8 µM) and an MIC Shigella flexneri JS 11839 [13] of 0.79 µg/mL (≈ 1.45 µM). For the same compound, the MIC Proteus mirabilis [14] was < 0.4 µg/mL, the MIC Staphylococcus aureus F-2 [15] was 1.57 µg/mL (≈ 2.88 µM) and the MIC Staphylococcus aureus F-3 [15] was 1.57 µg/mL (≈ 2.88 µM). The MIC Staphylococcus aureus F-5 [15] was > 200 µg/mL, the MIC Staphylococcus aureus MS 8588 [15] was 1.57 µg/mL (≈ 2.88 µM) and the MIC Staphylococcus aureus MS 8596 [15] was 1.57 µg/mL (≈ 2.88 µM).

With `CCCCCN1CCN(C(=O)NC(C(=O)NC2C(=O)N3C2SC(C)(C)C3C(=O)O)c2ccccc2)C(=O)C1=O` (single isomer, unassigned) [Compound 45] the MIC Proteus vulgaris [1] was < 0.4 µg/mL, the MIC Pseudomonas aeruginosa GN 1035 ([3]; Table 5-3, clinical isolate) was 50 µg/mL (≈ 89.3 µM) and the MIC Pseudomonas neruginosa S-3 ([3]; Table 5-4, clinical isolate) was 50 µg/mL (≈ 89.3 µM). For the same compound, the MIC Proteus vulgaris 3027 [4] was 0.4 µg/mL (≈ 0.715 µM), the MIC Esche--richin coil NIHJ [6] was < 0.1 µg/mL and the MIC Escherichia coli GN 3452 [8] was 1.57 µg/mL (≈ 2.81 µM). The MIC Escherichia coli GN 3481 [8] was 1.57 µg/mL (≈ 2.81 µM), the MIC Escherichia coli GN 3611 [8] was > 200 µg/mL and the MIC Escherichia coli K-2 [8] was 1.57 µg/mL (≈ 2.81 µM). For the same compound, the MIC Escherichia coli K-3 [8] was 200 µg/mL (≈ 357 µM), the MIC Salmonella typhi-murium SL 2136 [9] was 200 µg/mL (≈ 357 µM) and the MIC Klebsiella pneumoniae GN 917 [10] was 1.57 µg/mL (≈ 2.81 µM). The “Relative activity (%)” value [11] was 16%, the MIC Shigella sonnei JS 11232 [12] was 25 µg/mL (≈ 44.7 µM) and the MIC Shigella sonnei JS 11755 [12] was 1.57 µg/mL (≈ 2.81 µM). For the same compound, the MIC Shigella flexneri JS 11215 [13] was 25 µg/mL (≈ 44.7 µM), the MIC Shigella flexneri JS 11839 [13] was 1.57 µg/mL (≈ 2.81 µM) and the MIC Proteus mirabilis [14] was < 0.4 µg/mL. The MIC Staphylococcus aureus F-2 [15] was 1.57 µg/mL (≈ 2.81 µM), the MIC Staphylococcus aureus F-3 [15] was 1.57 µg/mL (≈ 2.81 µM) and the MIC Staphylococcus aureus F-5 [15] was > 200 µg/mL.
